Data reported in the CheMixHub viscosity set.
± gives the uncertainty stated by the source.

Test: xn = mol fraction of the nth substance listed

ClC(Cl)(Cl)Cl + CC(C)=O
viscosity [mPa·s], 101 kPa
Conditions	x1 = 0.0993	x1 = 0.2003	x1 = 0.2968	x1 = 0.4207	x1 = 0.5193	x1 = 0.61	x1 = 0.7052	x1 = 0.8049	x1 = 0.9143
293.15 K	0.3621 ± 0.0097	0.4068 ± 0.011	0.4555 ± 0.012	0.5227 ± 0.014	0.5813 ± 0.015	0.6398 ± 0.017	0.7073 ± 0.019	0.7845 ± 0.021	0.8843 ± 0.023
298.15 K	0.3447 ± 0.0093	0.3859 ± 0.01	0.4311 ± 0.011	0.4933 ± 0.013	0.5473 ± 0.015	0.6015 ± 0.016	0.6632 ± 0.018	0.7338 ± 0.019	0.8251 ± 0.022
303.15 K	0.3284 ± 0.0089	0.3665 ± 0.0099	0.409 ± 0.011	0.466 ± 0.012	0.5196 ± 0.014	0.5667 ± 0.015	0.6234 ± 0.017	0.6889 ± 0.018	0.7757 ± 0.021
313.15 K	0.3001 ± 0.0081	0.3321 ± 0.009	0.3699 ± 0.0099	0.4185 ± 0.011	0.4649 ± 0.012	0.506 ± 0.013	0.5538 ± 0.015	0.6106 ± 0.016	0.6817 ± 0.018

ClC(Cl)(Cl)Cl + CCCCCCO
viscosity [mPa·s], 101 kPa
Conditions	298.15 K	308.15 K	318.15 K
x2 = 0.0092	0.909 ± 0.009	0.786 ± 0.008	0.691 ± 0.007
x2 = 0.0374	0.941 ± 0.009	0.817 ± 0.008	0.71 ± 0.007
x2 = 0.07	0.961 ± 0.025	–	–
x2 = 0.0912	1 ± 0.01	0.865 ± 0.008	0.745 ± 0.007
x2 = 0.14	1.058 ± 0.028	–	–
x2 = 0.1545	1.11 ± 0.01	0.938 ± 0.009	0.806 ± 0.008
x2 = 0.2095	1.197 ± 0.011	1.008 ± 0.01	0.861 ± 0.008
x2 = 0.21	1.167 ± 0.031	–	–
x2 = 0.27	1.299 ± 0.034	–	–
x2 = 0.293	1.368 ± 0.013	1.127 ± 0.011	0.942 ± 0.009
x2 = 0.3554	1.533 ± 0.014	1.255 ± 0.012	1.046 ± 0.01
x2 = 0.496	1.965 ± 0.018	1.564 ± 0.015	1.273 ± 0.012
x2 = 0.5	1.931 ± 0.05	–	–
x2 = 0.6	2.317 ± 0.06	–	–
x2 = 0.6252	2.531 ± 0.023	1.957 ± 0.018	1.548 ± 0.015
x2 = 0.69	2.737 ± 0.071	–	–
x2 = 0.7459	3.091 ± 0.028	2.344 ± 0.022	1.814 ± 0.017
x2 = 0.86	3.57 ± 0.093	–	–
x2 = 0.8652	3.83 ± 0.035	2.863 ± 0.026	2.202 ± 0.02

ClC(Cl)(Cl)Cl + CC(=O)O
Conditions	viscosity [mPa·s]
298.15 K, 101 kPa, x2 = 0.1	0.84 ± 0.022
298.15 K, 101 kPa, x2 = 0.22	0.822 ± 0.022
298.15 K, 101 kPa, x2 = 0.31	0.811 ± 0.021
298.15 K, 101 kPa, x2 = 0.39	0.808 ± 0.021
298.15 K, 101 kPa, x2 = 0.63	0.832 ± 0.022
298.15 K, 101 kPa, x2 = 0.72	0.863 ± 0.023
298.15 K, 101 kPa, x2 = 0.79	0.9 ± 0.024
298.15 K, 101 kPa, x2 = 0.91	1.007 ± 0.026
298.15 K, 101.33 kPa, x2 = 0.214	0.82 ± 0.0057
298.15 K, 101.33 kPa, x2 = 0.418	0.804 ± 0.0056
298.15 K, 101.33 kPa, x2 = 0.608	0.816 ± 0.0057
298.15 K, 101.33 kPa, x2 = 0.805	0.92 ± 0.0064
303.15 K, 101 kPa, x1 = 0.0697	1.071 ± 0.028
303.15 K, 101 kPa, x1 = 0.2172	0.995 ± 0.026
303.15 K, 101 kPa, x1 = 0.7482	0.894 ± 0.024
313.15 K, 101 kPa, x1 = 0.0697	0.982 ± 0.026
313.15 K, 101 kPa, x1 = 0.2172	0.876 ± 0.023
313.15 K, 101 kPa, x1 = 0.7482	0.791 ± 0.021
323.15 K, 101 kPa, x1 = 0.0697	0.917 ± 0.024
323.15 K, 101 kPa, x1 = 0.2172	0.804 ± 0.021
323.15 K, 101 kPa, x1 = 0.7482	0.697 ± 0.018

CCN(CC)CC + CCCCCCC
303.15 K, 101 kPa
Conditions	viscosity [mPa·s]
x1 = 0.00966	0.3735 ± 0.0035
x1 = 0.01875	0.3719 ± 0.0035
x1 = 0.02995	0.3707 ± 0.0035
x1 = 0.0422	0.3687 ± 0.0035
x1 = 0.04845	0.3675 ± 0.0035
x1 = 0.05931	0.3663 ± 0.0035
x1 = 0.07022	0.365 ± 0.0034
x1 = 0.07742	0.3639 ± 0.0034
x1 = 0.08877	0.363 ± 0.0034
x1 = 0.09882	0.3622 ± 0.0034

CCN(CC)CC + O
293.15 K, 100 kPa
Conditions	viscosity [mPa·s]
x1 = 0.0049	1.176 ± 0.0092
x1 = 0.0095	1.323 ± 0.01
x1 = 0.015	1.554 ± 0.012
x2 = 0.1006	0.4211 ± 0.0044
x2 = 0.204	0.5113 ± 0.005
x2 = 0.2996	0.6374 ± 0.0059
x2 = 0.4007	0.8296 ± 0.0074
x2 = 0.4997	1.135 ± 0.0096
x2 = 0.5997	1.614 ± 0.013
x2 = 0.7028	2.385 ± 0.022
x2 = 0.98	1.722 ± 0.013
